Test [1] addresses T1, Protein kinase C zeta type (Homo sapiens) (UniProt Q05513).
T1 sequence (whole entry): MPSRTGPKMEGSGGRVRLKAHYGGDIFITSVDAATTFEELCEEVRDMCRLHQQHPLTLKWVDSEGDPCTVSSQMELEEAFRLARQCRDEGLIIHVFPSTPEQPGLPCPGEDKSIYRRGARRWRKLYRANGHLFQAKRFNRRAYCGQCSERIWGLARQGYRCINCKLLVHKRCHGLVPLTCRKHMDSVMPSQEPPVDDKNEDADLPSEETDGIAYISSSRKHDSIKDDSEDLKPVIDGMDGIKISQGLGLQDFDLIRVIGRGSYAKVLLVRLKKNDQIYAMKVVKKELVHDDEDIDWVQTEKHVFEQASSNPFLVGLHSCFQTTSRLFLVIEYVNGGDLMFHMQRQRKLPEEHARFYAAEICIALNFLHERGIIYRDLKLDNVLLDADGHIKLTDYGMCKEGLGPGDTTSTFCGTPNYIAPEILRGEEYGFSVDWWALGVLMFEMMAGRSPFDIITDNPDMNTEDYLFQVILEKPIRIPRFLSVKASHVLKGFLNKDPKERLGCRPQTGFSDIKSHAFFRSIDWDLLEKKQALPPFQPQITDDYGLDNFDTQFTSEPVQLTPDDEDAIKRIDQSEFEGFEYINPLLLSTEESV
The test can be described thus: Inhibition of PKCzeta at 1 uM relative to control.

The target in test [2] is T2, Serine/threonine-protein kinase 3 (Homo sapiens) (UniProt Q13188).
T2 sequence (whole entry): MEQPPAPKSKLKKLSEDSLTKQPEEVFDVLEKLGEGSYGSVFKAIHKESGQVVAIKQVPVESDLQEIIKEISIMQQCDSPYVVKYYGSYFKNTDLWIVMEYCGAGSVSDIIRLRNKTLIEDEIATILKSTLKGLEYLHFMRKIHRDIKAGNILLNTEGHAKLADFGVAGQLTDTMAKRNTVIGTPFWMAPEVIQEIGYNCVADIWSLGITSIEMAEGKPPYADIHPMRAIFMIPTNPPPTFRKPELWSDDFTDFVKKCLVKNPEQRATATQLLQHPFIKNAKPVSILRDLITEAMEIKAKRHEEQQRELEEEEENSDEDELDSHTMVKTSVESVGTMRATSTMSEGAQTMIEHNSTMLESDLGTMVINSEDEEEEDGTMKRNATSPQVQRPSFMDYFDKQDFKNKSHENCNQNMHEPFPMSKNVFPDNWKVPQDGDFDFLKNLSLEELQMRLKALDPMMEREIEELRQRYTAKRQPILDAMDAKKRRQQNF
Kind of test: Inhibition of MST2 at 1 uM relative to control.

The target in test [3] is Homeodomain-interacting protein kinase 2 (Homo sapiens) (UniProt Q9H2X6). Kind of test: Inhibition of HIPK2 at 1 uM relative to control.
Chain of Homeodomain-interacting protein kinase 2 (Homo sapiens) (Q9H2X6 whole entry, looked up): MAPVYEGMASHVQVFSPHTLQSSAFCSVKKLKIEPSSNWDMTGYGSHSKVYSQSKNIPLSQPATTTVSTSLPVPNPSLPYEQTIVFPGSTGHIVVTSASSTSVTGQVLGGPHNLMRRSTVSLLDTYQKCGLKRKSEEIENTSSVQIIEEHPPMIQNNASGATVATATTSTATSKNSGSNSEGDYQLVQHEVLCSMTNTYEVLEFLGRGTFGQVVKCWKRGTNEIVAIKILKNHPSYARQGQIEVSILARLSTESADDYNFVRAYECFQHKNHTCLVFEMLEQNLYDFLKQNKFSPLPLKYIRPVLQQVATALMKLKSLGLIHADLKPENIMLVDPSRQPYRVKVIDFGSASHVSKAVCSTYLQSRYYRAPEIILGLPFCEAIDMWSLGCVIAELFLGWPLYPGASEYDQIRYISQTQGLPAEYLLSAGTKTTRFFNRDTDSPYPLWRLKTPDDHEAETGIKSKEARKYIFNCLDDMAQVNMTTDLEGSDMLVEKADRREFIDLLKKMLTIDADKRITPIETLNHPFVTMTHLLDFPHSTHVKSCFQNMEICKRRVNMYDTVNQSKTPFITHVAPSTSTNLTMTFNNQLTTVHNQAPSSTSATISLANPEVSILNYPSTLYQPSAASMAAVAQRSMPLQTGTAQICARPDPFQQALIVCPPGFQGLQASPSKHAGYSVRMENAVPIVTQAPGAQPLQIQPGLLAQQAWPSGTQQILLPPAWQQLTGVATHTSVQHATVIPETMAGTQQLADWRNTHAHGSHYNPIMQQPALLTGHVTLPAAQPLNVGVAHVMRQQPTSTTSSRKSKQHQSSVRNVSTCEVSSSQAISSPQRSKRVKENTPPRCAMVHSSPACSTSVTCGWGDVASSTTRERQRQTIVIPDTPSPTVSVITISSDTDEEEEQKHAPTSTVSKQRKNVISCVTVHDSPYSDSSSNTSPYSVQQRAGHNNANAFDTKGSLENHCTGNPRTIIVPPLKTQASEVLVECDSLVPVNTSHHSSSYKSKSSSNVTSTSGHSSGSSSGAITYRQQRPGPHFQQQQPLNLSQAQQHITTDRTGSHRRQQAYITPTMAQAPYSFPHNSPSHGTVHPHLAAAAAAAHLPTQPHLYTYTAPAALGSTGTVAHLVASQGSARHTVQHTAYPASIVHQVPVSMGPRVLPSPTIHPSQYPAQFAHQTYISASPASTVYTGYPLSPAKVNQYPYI
Test [4] addresses RAC-beta serine/threonine-protein kinase (Homo sapiens) (UniProt P31751). The test can be described thus: Inhibition of PKBbeta at 1 uM relative to control.
Test [5] deals with T3, Serine/threonine-protein kinase Chk1 (Homo sapiens) (UniProt O14757).
T3 sequence (whole entry): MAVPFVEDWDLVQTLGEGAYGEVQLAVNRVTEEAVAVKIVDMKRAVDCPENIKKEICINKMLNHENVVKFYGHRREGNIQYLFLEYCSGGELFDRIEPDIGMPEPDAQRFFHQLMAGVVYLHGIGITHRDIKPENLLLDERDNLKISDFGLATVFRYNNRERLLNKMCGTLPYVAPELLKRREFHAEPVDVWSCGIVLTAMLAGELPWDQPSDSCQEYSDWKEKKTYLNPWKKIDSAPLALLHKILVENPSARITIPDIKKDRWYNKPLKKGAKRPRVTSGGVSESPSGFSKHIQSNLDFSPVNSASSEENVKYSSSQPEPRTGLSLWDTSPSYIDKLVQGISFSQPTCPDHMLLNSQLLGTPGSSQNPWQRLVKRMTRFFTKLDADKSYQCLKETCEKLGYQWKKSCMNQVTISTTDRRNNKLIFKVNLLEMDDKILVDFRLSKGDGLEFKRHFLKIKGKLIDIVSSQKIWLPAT
Kind of test: Inhibition of CHK1 at 1 uM relative to control.

Chain of RAC-beta serine/threonine-protein kinase (Homo sapiens) (P31751 whole entry): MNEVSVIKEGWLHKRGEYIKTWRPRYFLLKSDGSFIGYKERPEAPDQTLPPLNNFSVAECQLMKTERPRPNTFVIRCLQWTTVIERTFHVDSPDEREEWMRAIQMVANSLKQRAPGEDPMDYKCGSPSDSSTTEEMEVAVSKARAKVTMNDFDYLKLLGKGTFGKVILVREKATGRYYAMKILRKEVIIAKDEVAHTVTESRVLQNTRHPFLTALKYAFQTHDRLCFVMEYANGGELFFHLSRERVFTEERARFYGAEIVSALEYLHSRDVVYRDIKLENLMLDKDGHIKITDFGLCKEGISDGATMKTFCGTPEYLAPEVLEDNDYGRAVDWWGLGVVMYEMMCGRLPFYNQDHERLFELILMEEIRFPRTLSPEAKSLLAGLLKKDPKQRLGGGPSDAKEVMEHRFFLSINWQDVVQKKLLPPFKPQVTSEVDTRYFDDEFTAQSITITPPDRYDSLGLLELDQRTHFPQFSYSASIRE

What is called residual activity is the signal under treatment as a percentage of the control signal. A low value points to little activity left. For `O=C(Nc1cc(C(F)(F)F)ccc1F)Nc1ccc(Oc2ccnc3[nH]c(=O)[nH]c23)c2ccccc12`, the residual activity was determined as 75% in test [1]; 100% in test [2]; 100% in test [3]; 100% in test [4]; 100% in test [5].
For `CSc1cc(Oc2ccnc3[nH]c(=O)[nH]c23)ccc1NC(=O)Nc1cccc(C(F)(F)F)c1`, the residual activity amounted to 75% in test [1]; 75% in test [2]; 75% in test [3]; 100% in test [4]; 100% in test [5].
Turning to `CC(C)(C)c1cccc(NC(=O)Nc2ccc(Oc3ccnc4[nH]c(=O)[nH]c34)c3ccccc23)c1`, the residual activity in test [1], in test [2], in test [3], in test [4] and in test [5] was 75% each time.

The values are drawn from ChEMBL document CHEMBL1136991, “Novel potent BRAF inhibitors: toward 1 nM compounds through optimization of the central phenyl ring” (J Med Chem, 2009).
